Data on 89 compounds can be found in a melting point compilation (Tetko et al.; mined from patent text by program, amines drawn as free bases though some values may be those of a salt).

One may read the melting point as the temperature, or range, at which the solid turns liquid.

Some results are limits rather than exact numbers.

Turning to `Cc1nc2c(N)nc3c(c2n1CCOCCS(C)(=O)=O)CCCC3`, the melting point was in the range of 173 to 175 °C.

On to `O=C(O)c1cc([N+](=O)[O-])c(F)c(F)c1F`, for which the melting point fell in the range of 128 to 129 °C.

The compound `NS(=O)(=O)c1ccc(C2=C(c3ccc(F)cc3)CC3(CCC3)C2)cc1` returned a melting point of 118 to 119 °C.

Compound `Cn1cc(C(=O)NCc2ccc(Cl)cc2)c(=O)c2scc(COCC[Si](C)(C)C)c21` registered a melting point of 135 to 136 °C.

For `Cc1cc(-c2ccc(C(F)(F)F)cc2)nc(Oc2cccc(C(F)(F)F)c2)n1`, the melting point lay in the range of 124 to 127 °C.

Turning to `O=C(O)c1ccc(S(=O)(=O)Cl)cc1O`, the melting point was 173 °C.

`CC(C)(C)c1ccc(OCC(O)CCCl)cc1` (centres undefined) showed a melting point of 45 to 47 °C.

Turning to `CNC(=S)NS(=O)(=O)c1cc2c(cc1OC)OC(C)(C)C(NC(=O)c1cc(Cl)ccc1OC)C2` (centres undefined), the melting point fell in the range of 234 to 235 °C.

In the case of `O=C(Nc1ccc(-c2cnc(-c3ccc(NC(=O)c4cccnc4)cc3)[nH]2)cc1)c1cccnc1`, the melting point lay in the range of 317 to 319 °C.

`Cc1nc(N2C(=O)N(Cc3ccc(F)cc3)C[C@@H]2C)sc1C(N)=O` showed a melting point of 197 to 198 °C.

In turn, `O=C=Nc1ccc(N2CCOCC2)cc1` returned a melting point of 221 to 225 °C.

Turning to `CC(C)(C)c1cc(C(=O)COc2ccc(C(=O)OCc3ccccc3)c(O)c2)cc(C(C)(C)C)c1O`, the melting point was 123 to 124 °C.

On to `CS(=O)(=O)Nc1ccc([N+](=O)[O-])cc1Br`, for which the melting point lay in the range of 148 to 151 °C.

For `COc1ccc(C(Cl)=C(C=O)c2ccc(OC)c(OC)c2)cc1OC`, the melting point is 183 to 184 °C.

In turn, `CC(C)OC(=O)c1c(S(C)(=O)=O)ccc(C(=O)O)c1Cl` showed a melting point of 114 to 118 °C.

Regarding `Cc1nc(-c2ccc(O)c(C)c2O)no1`, the melting point fell in the range of 224 to 225 °C.

On to `CN(C)C(=O)Sc1ccccc1C(=O)c1ccccc1C#N`, for which the melting point stood at 130 °C.

As to `CCC(CC(=O)NC(=O)OC(C)(C)C)Nc1ccc(Cl)cc1` (centres undefined), the melting point was in the range of 93 to 94 °C.

Consider `COc1cc(OC)nc(NC#N)n1`, for which the melting point came to 202 °C.

For `O=C(c1ccc(Cl)cc1)c1cccc(Cl)c1[N+](=O)[O-]`, the melting point is 147 to 148 °C.

`O=Cc1ccc(OCCCC(=O)O)c([N+](=O)[O-])c1` yielded a melting point of 136 to 139 °C.

On to `CCCCn1c(=O)cnn(-c2ccc(N3CCN(c4ccc(O)cc4)CC3)cc2)c1=O`, for which the melting point turned out to be 202 °C.

`O=S(=O)(NCc1ccc(Cl)cc1)c1c[nH]cn1` returned a melting point of 196 to 198 °C.

Consider `N#Cc1c[nH]c(-c2ccc(Cl)cc2)c1`, for which the melting point lay within 174 to 175 °C.

Consider `CN(C)C(=O)N1CCc2ccc(Nc3nc4c(-c5cc(Cl)ccc5OCC(F)F)cccn4n3)cc2CC1`, for which the melting point lay in the range of 98 to 99 °C.

For the compound `[N-]=[N+]=NCCCc1ccc(C(=O)O)s1`, the melting point lay within 71 to 72 °C.

With `N#Cc1c(N2CCN(C(=O)c3cccs3)CC2)c2cc(Cl)cnc2n(Cc2ccccc2)c1=O`, the melting point was found to be 221 °C.

For `Nc1cc(Oc2ccc(NC(=O)Nc3ccc(Cl)c(C(F)(F)F)c3)cc2)ncn1`, the melting point was in the range of 197 to 198 °C.

The compound `CN(C(CCn1c(=O)cc(Cl)[nH]c1=O)C(=O)NO)S(=O)(=O)c1ccc(Oc2ccncc2)cc1` (centres undefined) returned a melting point of 163 to 165 °C.

On to `COc1c(Br)c(-c2cc(C(C)C)n(C)n2)cc2oc(=O)c(C)c(C)c12`, for which the melting point fell in the range of 177 to 179 °C.

`CNS(=O)(=O)c1sccc1C(C)=O` showed a melting point of 101 to 103 °C.

Turning to `CCn1c(NC=O)nc(N2CCc3ccccc3CC2)c(C#N)c1=O`, the melting point was over 200 °C.

Turning to `CN(c1ccc(Br)cc1)c1nc(=O)c2cccnc2s1`, the melting point lay within 221 to 222 °C.

`CCOC(=O)c1nnc2ccc(NC(=O)OCC(Cl)(Cl)Cl)cc2c1O` gave a melting point of 251 to 253 °C.

Turning to `CSc1cccc(Oc2ncccc2C(=O)NCc2ccc(C(C)(C)O)cc2)c1`, the melting point lay in the range of 107 to 109 °C.

Take `Cc1c(C)c2c(c(C)c1OCc1ccccc1)CC[C@@](C)(CO)O2`: the melting point lay in the range of 66 to 69.5 °C.

Consider `CCOC(=O)Cn1c(=O)c2cc(OC)ccc2n(Cc2ccc(Cl)cc2Cl)c1=O`, for which the melting point lay within 167 to 168 °C.

`O=C(O)c1cnc2c3ccccc3c(O)cn2c1=O`: the melting point was in the range of 273 to 276 °C.

In turn, `FCc1cc(-c2nnc3c4ccccc4c(OCc4nc[nH]n4)nn23)no1` gave a melting point of 266 to 268 °C.

In the case of `COC1(c2csc(Sc3ccc4c(c3)OCC/C4=N\O)c2)CCOCC1`, the melting point was 137 to 138 °C.

On to `OCc1ccc(Cl)cc1C(O)c1ccccc1` (centres undefined), for which the melting point was 102 to 107 °C.

Turning to `CC(C)S(=O)(=O)N1C[C@@H](c2c[nH]c3ccccc23)[C@H](c2cn3c4c(cccc24)CCC3)C1`, the melting point fell in the range of 100 to 115 °C.

As for `O=C(c1ccccc1)c1cccc(NC(=O)c2ccn3c2CSC3c2cccnc2)c1` (single isomer, unassigned; (+)), the melting point turned out to be 109 °C.

As to `CC(=O)c1ccc(S(=O)(=O)N2CCCC(CO)C2)cc1` (centres undefined), the melting point is 104 to 106 °C.

As for `Cc1cc(SC(C)C)c(NC(=O)CCCSc2nc3cccc(C(F)(F)F)c3o2)c(SC(C)C)n1`, the melting point was in the range of 135 to 136 °C.

`O=C(OCCO)c1ncn2c1[C@@H]1CCCN1C(=O)c1sccc1-2`: the melting point was 182 to 184 °C.

In the case of `Cc1ccc(C(=O)Nc2cc(F)ccc2F)cc1`, the melting point is 108 to 110 °C.

As for `CC(C)COc1c(-c2ccc(S(C)(=O)=O)c(F)c2)cnn(-c2cccc(Cl)c2)c1=O`, the melting point lay in the range of 180 to 183 °C.

For `Cc1ccc(S(=O)(=O)OCC2CNC(=O)O2)cc1` (centres undefined), the melting point lay in the range of 96 to 99 °C.

Regarding `CS(=O)(=O)c1ccc(-c2cnn(Cc3ccc(F)cc3F)c(=O)c2-c2ccc(F)cc2)cc1`, the melting point lay in the range of 179 to 182 °C.

As to `CC(C)Cc1nc2ccc(O)cc2c(-c2ccccc2F)c1C#N`, the melting point was in the range of 256 to 257 °C.

As to `O=C(O)c1sc(Cl)nc1-c1ccccc1`, the melting point lay in the range of 170 to 171 °C.

`CCCCn1cc(C(=O)O)c2ccccc21`: the melting point is 124 to 126 °C.

`CCCCCCCCCCCCn1nnc(CC(=O)Nc2c(C(C)C)cccc2C(C)C)n1` had a melting point of 75 to 79 °C.

In the case of `Nn1cnn(C2CCc3ccccc3C2)c1=S` (centres undefined), the melting point fell in the range of 147 to 150 °C.

Compound `C=CCNC(=O)C1=C(C(=O)Nc2ccc(Br)cc2F)CCCC1` came in with a melting point of 167 to 169 °C.

`Cc1cc(=O)n2cccc(OCc3ccc(Cl)cc3Br)c2n1` displayed a melting point of 182 to 184 °C.

The compound `COC(=O)Cc1cc2ccc(OC)cc2[nH]c1=O` displayed a melting point of 195 to 196 °C.

For `CCc1ccc2[nH]c(C(=O)O)cc2c1`, the melting point was 173 °C.

Compound `Cn1c(C(F)(F)F)cc(=O)n(-c2ccc3snc(C4OCC(CS(C)(=O)=O)O4)c3c2)c1=O` (centres undefined) yielded a melting point of 184 to 188 °C.

Regarding `C(=Cc1cc2cc3ccccc3cc2s1)c1ccccc1`, the melting point was 305 to 307 °C.

Take `CN(C)C(=O)Nc1ccc(CN2OCC(C)(C)C2=O)c(Cl)c1`: the melting point was in the range of 145 to 147 °C.

Take `CC1CC(=Cc2ccccc2O)C(=O)O1` (centres undefined): the melting point lay within 112 to 114 °C.

With `O=C(CN1C(=O)C(NC(=O)c2cc3ccccc3[nH]2)C(c2ccccc2)Sc2ccccc21)NCCc1ccccc1` (centres undefined), the melting point was in the range of 157 to 163 °C.

In turn, `COC(=O)C(=O)c1ccc(OCCCNC(=O)c2ccc3ccccc3c2)cc1` came in with a melting point of 143 to 144 °C.

As to `CCCCc1nc2cccc(C(=O)OCOC(=O)C(C)(C)C)c2n1Cc1ccc2nc(-c3ccccc3-c3nnn[nH]3)ncc2c1`, the melting point lay within 126 to 128 °C.

For the compound `COc1cc(OC)nc(C2(O)OC(=O)c3c(Cl)cccc32)n1` (centres undefined), the melting point was in the range of 188 to 190 °C.

`CN(C)C(=S)Oc1ccc(CCCCN)cc1` returned a melting point of 89 to 93 °C.

For the compound `O=C(c1ccccc1)[C@@]1([N+](=O)[O-])[C@@H]2C=C[C@@H](C2)[C@H]1c1ccccc1` (relative stereo), the melting point lay within 119 to 120 °C.

Turning to `Cn1cc(-c2ccc3nc(NC(=O)c4ccc(C(C)(C)C)cc4)cn3n2)cn1`, the melting point lay within 245 to 246 °C.

As for `CN(C)c1ccc(C(=O)c2ccc(OCCO)cc2)cc1`, the melting point is 142 to 143 °C.

Compound `CC1CC(=O)NN=C1c1ccc(N2CCOCC2)c([N+](=O)[O-])c1` (centres undefined) had a melting point of 223 to 225 °C.

The compound `O=c1c2ccccc2[nH]c2c(OCCN(CCCl)CCCl)cccc12` gave a melting point of 131 to 133 °C.

On to `CCN(CC)CCNC(=O)c1cccc2cc3ccc(I)cc3nc12`, for which the melting point lay within 80 to 82 °C.

`COc1cccc(P(=O)(c2ccccc2)c2ccccc2)c1I` came in with a melting point of 186 to 189 °C.

As for `CCOC(=O)c1sc(Oc2ccccc2)nc1C(F)(F)F`, the melting point was in the range of 52 to 54 °C.

For the compound `CCOc1ccc2c(S(=O)(=O)c3ccc(OCc4ccccc4)cc3)c(C(C)C)cn2c1`, the melting point turned out to be 153 °C.

The compound `Nc1cccc(Cn2c(-c3ccc(NC(=O)c4ccccc4)cc3)ccc2-c2ccccc2Cl)n1` gave a melting point of 196 to 198 °C.

As for `O=C(c1c(F)cccc1F)N1COCN(c2ccc(SC(F)F)cc2F)C1=O`, the melting point is 77 to 79 °C.

The compound `NC(=O)c1c[nH]c2cccc(OCc3ccccc3)c12` yielded a melting point of 176 °C.

In turn, `CC(Nc1ccc(F)c(F)c1F)C(=O)O` (centres undefined) yielded a melting point of 114 to 119 °C.

Turning to `N#Cc1ccc(-c2ccc(C(=O)CCC(=O)O)cc2)cc1`, the melting point lay in the range of 191 to 193 °C.

With `CC#CC(O)(c1ccc(C)cc1C)c1ccc(C)cc1C`, the melting point was 64 to 65 °C.

In turn, `N#Cc1c(N2CCCCC2)cc(-c2cccs2)c2c1-c1ccccc1C2=O` gave a melting point of 172 to 174 °C.

For `CCOc1cc(C(=O)OC)on1`, the melting point is 77 to 79 °C.

`CC(C)n1nc(-c2c(OCCN3C(=O)c4ccccc4C3=O)nc(N)nc2-c2ccccc2)ccc1=O` gave a melting point of 232 °C.

`CCOC(=O)CCc1c(OCCCCCCc2ccc(OC)cc2)ccc2c(=O)c3cc(C(=O)OC)ccc3oc12` yielded a melting point of 108 to 109 °C.

In turn, `OC1(c2nccnc2Cl)CN2CCC1CC2` (centres undefined) displayed a melting point of 215 to 216 °C.

For `O=[N+]([O-])c1ccc2nc(N3CCNCC3)ccc2c1`, the melting point turned out to be 153 °C.
